Reference: paper PMC6747051, “Screening of Antiviral Components of Ma Huang Tang and Investigation on the Ephedra Alkaloids Efficacy on Influenza Virus Type A” (Frontiers in Pharmacology, 2019)
In brackets after ≈: the same amount, converted by molar mass. Entries after “also recorded” stand apart in the source; their conditions may differ.

Legend:
[1] = test system: influenza A virus; assay: Antiviral activity assay in vitro with four ways of drug delivery (MTT, MDCK cells); assay type: cell-based, influenza virus A/PR8/34 (H1N1); conditions: for EC50: Influenza A virus, MDCK; for antiviral effective rate (ER): final concentration 3.91 μg/ml
[2] = test system: influenza A virus; assay: Viral load assay using real-time RT-PCR (M1 gene) and CPE in infected MDCK cells; assay type: cell-based, influenza virus A/PR8/34 (H1N1); conditions: 24 and 48 h after administration; for viral load in MDCK cells vs control infected group: each dose group, P < 0.01 or P < 0.05
[3] = test system: IL-6, IFN-β and TNF-α levels; assay type: cell-based, canine
[4] = test system: TLRs signaling pathway mRNA; assay type: cell-based, canine
[5] = test system: influenza A virus (A PR/8/34); assay: HE assay of lung tissue of infected mice; assay type: in vivo, ICR mice; conditions: days 3 and 7 post-infection, 40, 20, 10 mg/kg
Method: (§1) A total of 108 ICR mice were randomly divided into the control uninfected group, the control infected group, oseltamivir group, LEP-treated groups and DPEP-treated groups; 12 mice were designed in each group. Except for the mice in the control uninfected group, others were anaesthetized with ethyl ether and intranasally infected with 10LD50 influenza A virus (A PR/8/34) in a volume of 50 μl PBS to induce viral pneumonia. […] Meanwhile, the control uninfected group and the control infected group were only given saline with the same volume. […] The adult daily dose was converted into the high dose of mice, which was about 40 mg/kg. Based on the high dose of the drug, the medium and low doses were set.
In the 3rd and 7th days after infection, the right lung lobes from each mouse were washed with normal saline and immediately soaked in 10% normal buffered formalin for one week. Then the samples were dehydrated with ethanol and embedded in paraffin. The 4-μm-thick lung sections were stained with HE and the pathological changes of lung tissue were observed under the light microscope.

[6] = test system: influenza A virus (A PR/8/34); assay: RT-PCR analysis of viral load in murine lung tissue; assay type: in vivo, ICR mice
Method: as §1
In the 3rd and 7th days after infection, the left lung lobes from each mouse were washed with normal saline and stored at -80°C for RT-PCR and western blot analysis use. For RT-PCR analysis, the left lung was homogenized in precooled normal saline and centrifuged at 4000 rpm for 10 min at 4 °C. Total RNA was extracted using the High Pure Viral Nucleic Acid kit and cDNA was synthesized with the PrimeScript™ RT Master Mix kit. The specific steps of RT-PCR amplification were the same as the previous section in the present study. The related primers for mouse were designed by Sangon Biotech, Co., Ltd. (Shanghai, China) and are described in Table S2 .

[7] = test system: IL-1β, IL-6 and IL-10 in serum; assay type: in vivo, ICR mice; conditions: 3rd and 7th day after infection; for IL-10 in serum: P < 0.01; for IL-1β in serum: P < 0.01 or P < 0.05; for IL-6 in serum: P > 0.05
Method: as §1
In days 3 and 7 post-infection, blood samples of six mice from each group were collected from retroorbital sinus under mild ethyl ether anesthesia before they were sacrificed, then under 4 °C they were centrifuged at 3000 rpm for 20 min to obtain serum. The levels of IL-1β, IL-6 and IL-10 in murine serum were determined by ELISA kits.

[8] = test system: TNF-α, IFN-γ, TLR3, TLR4, TLR7, MyD88, NF-κB p65 and RIG-1 mRNA; design: species or system ICR mice; conditions: mouse, in vivo
[9] = test system: TLR4, TLR7, MyD88 and NF-κB p65 protein expression; design: species or system ICR mice; conditions: mouse, in vivo
[10] = test system: influenza A virus; conditions: dog
[11] = test system: influenza A virus; assay: microbe, parasite or virus in culture; conditions: MDCK, 48 h, read-out: Cell survival rate
[12] = drug delivery way: Blocking viruses invading host cells
[13] = drug delivery way: Directly inhibiting virus
[14] = drug delivery way: Inhibiting the biosynthesis of virus
[15] = drug delivery way: Intervening the adsorption of virus
[16] = 3rd day after infection, three doses, P < 0.01 or P < 0.05
[17] = 7th day after infection, 40 and 20 mg/kg groups, P < 0.05

Compound	EC50 [1, 12]	EC50 [1, 13]	EC50 [1, 14]	EC50 [1, 15]	antiviral effective rate (ER) [1]	CPE of infected MDCK cells [2]	viral load in MDCK cells vs control infected group [2]	IL-6 level in cell supernatant vs control infected group [3]	level of IFN-β in cell supernatant vs control infected group [3]	secretion of TNF-α vs control infected group [3]	mRNA expression levels of TLR7, NF-κB p65, TLR3 and IRF3 [4]	mRNA expression of IFN-β [4]	histopathological responses of lung tissue [5]	viral load in lung tissue vs control infected group [6, 16]	viral load in lung tissue vs control infected group [6, 17]	IL-10 in serum [7]	IL-1β in serum [7]	IL-6 in serum [7]	mRNA expression levels of TLR3, TLR4, TLR7, MyD88, NF-κB p65 and RIG-1 in lung tissue [8]	mRNA expression of IFN-γ in lung tissue [8]	further results
CN[C@@H](C)[C@@H](O)c1ccccc1 [DPEP, D-pseudoephedrine]	8.17 µg/mL (≈ 49.4 µM)	6.04 µg/mL (≈ 36.6 µM)	4.67 µg/mL (≈ 28.3 µM)	7.57 µg/mL (≈ 45.8 µM)	more than 38.00%	significantly reduce the CPE	significantly decreased	significantly higher than that in the control infected group	significantly increase; also recorded: increased	significantly inhibited the secretion of TNF-α	significantly reduced	significantly increased	attenuated the inflammation	significantly decreased	significantly reduced	accelerated the production of IL-10	dramatically inhibited the production of IL-1β	slightly increased	obviously inhibited	significantly promoted	IFN-β mRNA expression compared with the oseltamivir group [4]: significantly increased; mRNA expression levels of MyD88, TRAF6 and TRAF3 [4]: obvious decreased; mRNA expression levels of NF-κB p65, TRAF3 and IRF3 compared with the oseltamivir group [4]: significantly reduced; mRNA expression levels of TRAF6 and TLR4 [4]: reduced; mRNA expression of MyD88 and TRAF3 [4]: significant decreased; mRNA expression of TLR4 [4]: significant decreased; mRNA expression of TNF-α in lung tissue [8]: markedly inhibited; inhibition effect on protein expression of TLR4 and TLR7 in lung tissue [9]: not obvious; protein expression levels of MyD88 and NF-κB p65 in lung tissue [9]: significantly down-regulated; protein expression levels of TLR4 and TLR7 in lung tissue [9]: Decreased; protein expression of TLR4, TLR7 and NF-κB p65 in comparison to oseltamivir [9]: dramatically inhibit; cell viability rate [10]: ≥ 70%; viability at 0.49 µg/mL [11]: 45.3%; viability at 0.98 µg/mL [11]: 54.7%; viability at 1.95 µg/mL [11]: 61.2%; viability at 3.91 µg/mL [11]: 63.9%; viability at 7.81 µg/mL [11]: 72.5%
CN[C@@H](C)[C@H](O)c1ccccc1 [LEP, L-ephedrine]	11 µg/mL (≈ 66.3 µM)	6.28 µg/mL (≈ 38 µM)	5.66 µg/mL (≈ 34.3 µM)	7.15 µg/mL (≈ 43.3 µM)	> 36.00%	significantly reduce the CPE	significantly decreased	significantly higher than that in the control infected group	significantly increase; also recorded: increased	significantly inhibited the secretion of TNF-α	significantly reduced	significantly increased	attenuated the inflammation	significantly decreased	significantly reduced	accelerated the production of IL-10	dramatically inhibited the production of IL-1β	slightly increased	obviously inhibited	significantly promoted	mRNA expression levels of TLR4 and TRAF3 [4]: inhibited; mRNA expression of MyD88 and TRAF6 [4]: marked decreased; mRNA expression of TLR4 and MyD88 [4]: significantly inhibited; mRNA expression of TRAF6 and TRAF3 [4]: decreased; mRNA expression of TNF-α in lung tissue [8]: markedly inhibited; inhibition effect on protein expression of TLR4 and TLR7 in lung tissue [9]: not obvious; protein expression levels of MyD88 and NF-κB p65 in lung tissue [9]: significantly down-regulated; protein expression levels of TLR4 and TLR7 in lung tissue [9]: Decreased; protein expression of TLR4, TLR7 and NF-κB p65 in comparison to oseltamivir [9]: dramatically inhibit; cell viability rate [10]: ≥ 70%; viability at 0.49 µg/mL [11]: 42.6%; viability at 0.98 µg/mL [11]: 51.6%; viability at 1.95 µg/mL [11]: 57.8%; viability at 3.91 µg/mL [11]: 61.5%; viability at 7.81 µg/mL [11]: 67.2%
